Tests used:
[1] = target: T1, Tyrosine-protein phosphatase non-receptor type 1 (Homo sapiens) (UniProt P18031); assay: Percent inhibition of Protein Tyrosine Phosphatase 1B (PTP 1B) assayed at 100 uM
T1 sequence (whole entry): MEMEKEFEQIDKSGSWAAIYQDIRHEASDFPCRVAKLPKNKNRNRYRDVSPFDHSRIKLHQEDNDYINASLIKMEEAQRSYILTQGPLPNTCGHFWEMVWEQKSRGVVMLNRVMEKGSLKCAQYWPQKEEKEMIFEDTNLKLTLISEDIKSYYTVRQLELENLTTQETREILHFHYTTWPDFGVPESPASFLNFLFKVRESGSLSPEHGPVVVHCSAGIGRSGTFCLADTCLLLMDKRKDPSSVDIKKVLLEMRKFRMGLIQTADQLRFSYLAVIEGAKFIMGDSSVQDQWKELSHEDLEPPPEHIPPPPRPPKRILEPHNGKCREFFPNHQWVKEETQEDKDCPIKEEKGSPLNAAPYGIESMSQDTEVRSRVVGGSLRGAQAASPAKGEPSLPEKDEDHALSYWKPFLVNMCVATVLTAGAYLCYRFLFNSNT

[2] = target: T2, Tyrosine-protein phosphatase non-receptor type 1 (Rattus norvegicus) (UniProt P20417); assay: Percent inhibition of Protein-tyrosine phosphatase 1 (PTP) assayed at 100 uM
T2 sequence (whole entry): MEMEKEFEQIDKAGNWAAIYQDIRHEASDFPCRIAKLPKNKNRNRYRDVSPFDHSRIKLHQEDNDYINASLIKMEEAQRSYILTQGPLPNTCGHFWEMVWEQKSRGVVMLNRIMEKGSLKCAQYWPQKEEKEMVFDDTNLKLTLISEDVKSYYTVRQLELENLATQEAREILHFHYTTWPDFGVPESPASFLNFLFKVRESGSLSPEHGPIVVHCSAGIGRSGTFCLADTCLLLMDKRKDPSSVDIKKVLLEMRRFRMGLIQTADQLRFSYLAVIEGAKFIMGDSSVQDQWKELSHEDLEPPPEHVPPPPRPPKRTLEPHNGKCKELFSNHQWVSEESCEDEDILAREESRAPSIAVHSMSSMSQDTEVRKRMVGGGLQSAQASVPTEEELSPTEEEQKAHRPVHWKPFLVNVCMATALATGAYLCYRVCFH

[3] = target: Receptor-type tyrosine-protein phosphatase F (Homo sapiens) (UniProt P10586); assay: Percent inhibition of Protein-tyrosine phosphatase Lar assayed at 100 uM
[4] = target: T3, Tyrosine-protein phosphatase non-receptor type 11 (Mus musculus) (UniProt P35235); assay: Percent inhibition of Tyrosine phosphatase SHP2 SH2 domain containing PTP involved in insulin uM; parameters: concentration or dose not given beside the values; conditions: concentration not given here
T3 sequence (whole entry): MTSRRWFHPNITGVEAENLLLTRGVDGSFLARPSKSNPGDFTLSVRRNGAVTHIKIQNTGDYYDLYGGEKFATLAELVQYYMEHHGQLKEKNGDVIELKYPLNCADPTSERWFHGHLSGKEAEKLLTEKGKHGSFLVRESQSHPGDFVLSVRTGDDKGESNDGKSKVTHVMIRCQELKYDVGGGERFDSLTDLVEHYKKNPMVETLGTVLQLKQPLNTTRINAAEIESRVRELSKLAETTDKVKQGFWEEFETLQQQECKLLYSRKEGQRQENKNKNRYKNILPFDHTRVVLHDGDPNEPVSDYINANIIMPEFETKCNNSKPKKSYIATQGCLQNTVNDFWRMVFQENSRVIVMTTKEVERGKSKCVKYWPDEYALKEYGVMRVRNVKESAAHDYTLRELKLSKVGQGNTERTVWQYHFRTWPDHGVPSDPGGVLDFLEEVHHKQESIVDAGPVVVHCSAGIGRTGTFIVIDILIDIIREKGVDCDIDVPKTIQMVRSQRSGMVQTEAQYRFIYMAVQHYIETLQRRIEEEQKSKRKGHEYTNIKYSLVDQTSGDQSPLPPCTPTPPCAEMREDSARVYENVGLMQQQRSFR

[5] = Uptake of 2-deoxyglucose into L-6 myocytes, measurements were taken in absence of insulin (basal), assayed at 100 uM; format: functional
[6] = Uptake of 2-deoxyglucose into L-6 myocytes, measurements were taken in presence of insulin (+ins), assayed at 100 uM; format: functional

Receptor-type tyrosine-protein phosphatase F (Homo sapiens), sequence (P10586 whole entry, the tested form may be a part): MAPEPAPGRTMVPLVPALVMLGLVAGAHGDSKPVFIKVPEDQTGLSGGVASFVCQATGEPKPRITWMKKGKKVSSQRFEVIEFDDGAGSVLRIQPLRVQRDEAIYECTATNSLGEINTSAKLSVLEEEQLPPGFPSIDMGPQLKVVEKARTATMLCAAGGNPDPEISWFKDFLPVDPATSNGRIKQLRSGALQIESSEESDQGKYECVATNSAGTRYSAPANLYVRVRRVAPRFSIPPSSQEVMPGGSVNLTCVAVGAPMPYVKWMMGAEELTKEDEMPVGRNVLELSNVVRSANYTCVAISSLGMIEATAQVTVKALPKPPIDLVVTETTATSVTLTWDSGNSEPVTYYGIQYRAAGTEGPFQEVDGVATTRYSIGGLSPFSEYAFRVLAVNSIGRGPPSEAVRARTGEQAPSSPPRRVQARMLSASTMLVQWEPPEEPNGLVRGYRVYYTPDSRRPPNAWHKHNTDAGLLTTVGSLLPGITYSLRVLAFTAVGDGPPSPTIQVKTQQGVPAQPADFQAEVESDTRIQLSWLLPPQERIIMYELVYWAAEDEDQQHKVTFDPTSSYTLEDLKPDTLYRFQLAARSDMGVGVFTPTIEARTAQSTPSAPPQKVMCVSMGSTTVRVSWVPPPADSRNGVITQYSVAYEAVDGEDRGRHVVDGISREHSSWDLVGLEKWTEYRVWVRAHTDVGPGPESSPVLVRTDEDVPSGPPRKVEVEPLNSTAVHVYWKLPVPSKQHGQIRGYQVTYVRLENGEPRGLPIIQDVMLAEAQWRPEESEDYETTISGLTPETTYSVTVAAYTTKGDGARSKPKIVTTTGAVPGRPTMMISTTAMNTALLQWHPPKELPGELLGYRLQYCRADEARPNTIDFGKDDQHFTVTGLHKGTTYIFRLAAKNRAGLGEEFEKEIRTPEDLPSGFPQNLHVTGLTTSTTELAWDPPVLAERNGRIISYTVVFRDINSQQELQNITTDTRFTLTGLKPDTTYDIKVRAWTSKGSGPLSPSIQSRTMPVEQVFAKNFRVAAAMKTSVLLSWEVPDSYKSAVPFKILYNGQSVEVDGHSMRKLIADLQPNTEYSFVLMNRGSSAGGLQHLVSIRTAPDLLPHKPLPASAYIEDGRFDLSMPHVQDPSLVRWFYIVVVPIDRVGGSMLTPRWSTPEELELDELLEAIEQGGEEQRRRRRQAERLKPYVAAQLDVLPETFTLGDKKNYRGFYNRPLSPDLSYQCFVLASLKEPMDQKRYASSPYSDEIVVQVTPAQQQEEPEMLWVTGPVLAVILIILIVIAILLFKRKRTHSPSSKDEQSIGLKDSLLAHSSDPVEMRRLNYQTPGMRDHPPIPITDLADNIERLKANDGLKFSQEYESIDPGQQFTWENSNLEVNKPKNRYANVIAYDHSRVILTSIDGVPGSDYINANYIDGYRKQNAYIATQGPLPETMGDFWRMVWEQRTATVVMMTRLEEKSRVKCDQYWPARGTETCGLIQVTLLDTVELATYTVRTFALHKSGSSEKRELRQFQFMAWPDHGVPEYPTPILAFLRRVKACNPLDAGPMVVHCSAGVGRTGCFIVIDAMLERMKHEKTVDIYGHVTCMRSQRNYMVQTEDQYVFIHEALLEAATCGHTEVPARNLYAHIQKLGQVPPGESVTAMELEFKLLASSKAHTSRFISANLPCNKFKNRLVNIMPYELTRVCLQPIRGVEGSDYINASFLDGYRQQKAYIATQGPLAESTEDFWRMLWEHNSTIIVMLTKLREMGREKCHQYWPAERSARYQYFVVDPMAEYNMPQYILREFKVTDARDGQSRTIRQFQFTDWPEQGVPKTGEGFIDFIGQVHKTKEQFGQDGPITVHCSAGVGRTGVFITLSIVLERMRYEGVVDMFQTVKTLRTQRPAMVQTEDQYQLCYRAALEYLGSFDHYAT

Compound	inhibition [1] [%]	inhibition [2] [%]	inhibition [3] [%]	inhibition [4] [%]	2-deoxyglucose uptake, % of control [5] [%]	2-deoxyglucose uptake, % of control [6] [%]
CCCCCNC(=O)C(Cc1ccc(OC(C(=O)O)C(=O)O)cc1)NC(=O)[C@H](C)NC(=O)OC(C)(C)C (stereo partly drawn)	83	76	0	3	–	–
CCCCCNC(=O)C(Cc1ccc(OCC(N)=O)c(C(=O)O)c1)NC(=O)CCC(=O)O (stereo not drawn)	5	16	0	2	–	–
CCCCCNC(=O)C(Cc1ccc(OCC(=O)OC)c(C(=O)OC)c1)NC(=O)[C@H](Cc1ccccc1)NC(=O)OC(C)(C)C (stereo partly drawn)	0	–	0	1	114	72
CCCCCNC(=O)C(Cc1ccc(OC(C(=O)O)C(=O)O)cc1)NC(=O)[C@H](CC(=O)O)NC(=O)CCC(=O)O (stereo partly drawn)	95	96	7	25	–	–
CCCCCNC(=O)[C@H](Cc1ccc(OC(C(=O)O)C(=O)O)cc1)NC(=O)[C@H](Cc1ccc(C(=O)c2ccccc2)cc1)NC(=O)CCC(=O)O	98	98	26	71	–	–
CCCCCNC(=O)[C@H](Cc1ccc(OCC(=O)O)c(C(=O)O)c1)NC(=O)[C@@H](Cc1ccccc1)NC(=O)OC(C)(C)C	19	–	0	0	107	89
CCCCCNC(=O)C(Cc1ccc(OCC(=O)O)c(C(=O)O)c1)NC(=O)CCC(=O)O (stereo not drawn)	87	93	0	5	–	–
CCCCCNC(=O)C(Cc1ccc(OC(C(=O)O)C(=O)O)cc1)NC(=O)[C@H](Cc1ccccc1)NC(=O)CCC(=O)O (stereo partly drawn)	99	97	23	44	–	–
CCCCCNC(=O)C(Cc1ccc(OC(C(=O)O)C(=O)O)cc1)NC(=O)[C@H](CC(=O)O)NC(=O)CCCCC (stereo partly drawn)	–	91	10	37	–	–
CCCCCNC(=O)C(Cc1ccc(C=C(C(=O)O)C(=O)O)cc1)NC(=O)CCC(=O)O (stereo not drawn)	–	33	2	52	–	–
CCCCCNC(=O)C(Cc1ccc(OC(C(=O)O)C(=O)O)cc1)NC(=O)[C@H]1C[C@@H]1C(=O)O (stereo partly drawn)	–	57	6	10	–	–
CCCCCNC(=O)[C@H](Cc1ccc(OC(C(=O)O)C(=O)O)cc1)NC(=O)[C@@H](Cc1ccc(C(=O)c2ccccc2)cc1)NC(=O)CCC(=O)O	–	54	6	11	–	–
CCCCCNC(=O)C(Cc1ccc(O)c(C(=O)O)c1)NC(=O)CCC(=O)O (stereo not drawn)	–	0	0	3	–	–
CCCCCCCCCCNC(=O)C(Cc1ccc(OC(C(=O)O)C(=O)O)cc1)NC(=O)CCC(=O)O (stereo not drawn)	–	51	4	9	–	–
O=C(O)CCC(=O)NC(Cc1ccc(OC(C(=O)O)C(=O)O)cc1)C(=O)NCCOc1ccccc1 (stereo not drawn)	–	57	4	34	–	–
CCCCCNC(=O)C(Cc1ccc(OC(C(=O)O)C(=O)O)cc1)NC(=O)[C@H](Cc1ccccc1)NC(=O)OC(C)(C)C (stereo partly drawn)	91	88	27	10	–	–
CCCCCNC(=O)C(CCc1ccc(OC(C(=O)O)C(=O)O)cc1)NC(=O)CCC(=O)O (stereo not drawn)	–	18	0	10	–	–
O=C(O)CCC(=O)NC(Cc1ccc(OC(C(=O)O)C(=O)O)cc1)C(=O)NCCCn1ccnc1 (stereo not drawn)	–	26	3	1	–	–
CCCCCNC(=O)C(Cc1ccc(OC(C(=O)O)C(=O)O)c(F)c1F)NC(=O)CCC(=O)O (stereo not drawn)	–	85	12	23	–	–

From ChEMBL document CHEMBL1135703, “Synthesis and biological activity of a novel class of small molecular weight peptidomimetic competitive inhibitors of protein tyrosine phosphatase 1B” (2002)
